Experimental data as given in US10792331B2, “Methods for reducing cardiotoxicity from chemotherapy by administering humanin analog compositions” (LOS ANGELES BIOMEDICAL RESEARCH INSTITUTE AT HARBOR-UCLA …, priority 2015, dated 2020).
“Also recorded” adds a separate entry of the source. Like-named read-outs stand apart in the source and are kept apart here. Ends that are not written are not given here.

Key:
cells = conditions: compared with HN; cited from earlier work
membrane receptor = conditions: cited from earlier work
BAX = BAX (Homo sapiens, UniProt Q07812); conditions: cited from earlier work
Sequence of BAX (Q07812 whole entry, species assumed): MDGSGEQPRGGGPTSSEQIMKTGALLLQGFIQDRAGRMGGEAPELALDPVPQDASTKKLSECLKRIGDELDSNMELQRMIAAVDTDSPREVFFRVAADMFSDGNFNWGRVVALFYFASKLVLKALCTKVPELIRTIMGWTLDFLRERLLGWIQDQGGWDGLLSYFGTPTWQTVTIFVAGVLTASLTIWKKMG

[1] = Example 1: DOX ± HNG in B16 cell transplanted mice study, body weight and survival; conditions: for Body weight: B16 inoculated C57BL/6 male mice, DOX 5 mg/Kg weekly IP, HNG 5 mg/Kg daily IP
Procedure: Mouse B16 melanoma cells were cultured in 75 cm^2 flasks and incubated at 37° C. in a humidified chamber with 5% CO2 to generate enough cells for inoculating 10,000 cells/mouse×40 mice. After 5-7 days culture, B16 cells were collected and cell viability determined using the Trypan Blue stain and the number of living cells were counted under microscope.
Treatment Schedule: 7 weeks old C57BL/6 male mouse, control without tumor inoculation (n=6) and four other groups (n=10 each group) received B16 tumor cells (10,000/mouse) injection under the skin in the right flank. One group was not treated; another group received HNG IP injection, 5 mg/Kg BM, daily×40 days (HNG); the third group received Doxorubicin (DOX), IP injection, 5 mg/Kg BW, weekly×6 injections; and the last group DOX+HNG (Table 5).
The mice in the DOX treated group would receive 6 weekly injections of DOX and daily injection of HNG until Day 40. Body weights and tumor cell injection site were checked 3 times per week. Echocardiogram was scheduled at day 26 and repeated at day 40. Twenty four hours after echocardiogram examination, animals were sacrificed; whole blood, plasma, epididymis, heart, lung, testis, liver, spleen, kidney, intestine, muscle, skin, and femur bone were collected. Sperm in the cauda epididymis were counted and COMET assay for DNA damage of sperm assessed. Whole blood was collected for CBC analysis and plasma saved for measurement of HNG level or other bio-parameters. Testes were fixed in Bouin's or formaldehyde for immunohistochemistry and TUNEL analyses.

[2] = test system: Atrial Natriuretic Factor (ANF); assay: Example 3: real-time PCR of ANF transcripts in left ventricular tissue; conditions: for expression levels of ANF mRNA: heart, compared to control
cardiac fibrosis [3] = assay: Example 3: Masson's Trichrome quantification of fibrosis in hearts; conditions: for cardiac fibrosis: compared to controls
[4] = test system: nuclear-gene-encoded mitochondrial gene expression; assay: Example 3: mitochondrial gene focused qRT-PCR array of mouse hearts
[5] = patients with cancer, cited from earlier work
[6] = Example 3: outcome and general health (deaths, body weight, heart weight)
[7] = test system: DOX-induced cardiotoxicity; assay: Example 1: heart weight and echocardiogram in DOX ± HNG treated mice; format: in vivo, mouse
Procedure: The heart containing left and right ventricles were fixed with formalin for hematoxylin/eosin and trichrome staining and TUNEL to detect apoptotic cell. Heart sections were saved for immunohistochemistry. Pieces of left ventricle were fixed with gluteraldehyde for later mitochondria analysis by EM. Heart was snapped frozen and stored at −80 degrees (left and right atriums plus the rest of ventricles) for molecular studies (e.g. ANP/BNP).
Echocardiogram was performed on three mice from each group on day 32, and the rest of the mice on days 34 and 38. […] However when corrected for body weight, the heart: body weight ratio was not different among the groups (FIGS. 3A & 3B.)

[8] = mouse, in vivo
[9] = test system: DOX induced cardiotoxicity; assay: Example 2: echocardiogram ejection fraction, Dox, HNG and DRZ alone or in combinations; format: in vivo, mouse
Procedure: In this second experiment, adult male mice were used. These mice received for 8 weeks IP injections of saline daily (control), Doxorubicin (DOX 3 mg/week IP for 8 injections), HNG 5 mg/day IP), Dexrazoxane (DRZ 60 mg/week IP at the same time as Doxorubicin) either alone or in combinations as shown in FIG. 5. All animals received 8 weeks of injections.

[10] = test system: uncoupling protein 2 (Ucp2); assay: Example 3: Ucp2 protein by ProteinSimple (Wes) assay in ventricle lysates; format: in vivo, mouse
Procedure: Left ventricle samples from mice were sonicated in RIPA buffer (Sigma) supplemented with EDTA-free protease inhibitor cocktail tablets (Roche), and cell debris removed by centrifugation. The protein concentration was analyzed by Bio-Rad Protein Assay and measured by Beckman Du-640 Spectrophotometer.
Protein measurement for the uncoupling protein 2 (Ucp2) was performed using ventricle tissue lysates from control, Dox only, Dox+HNG, Dox+DRZ, and Dox+HNG+DRZ treated mice. Protein expression was quantified by Wes Separation Module with 25 Capillary Cartridges for 12-230 kDa (Wes®). Proteins (4 microgram/sample) were separated through a size-resolving matrix in capillaries, immobilized to the inner capillary wall, incubated with anti-Ucp2 rabbit monoclonal antibody (Cell Signaling) at concentration of 1 μg/ml and anti-rabbit secondary antibodies before detection using chemiluminescence. Signals reflected as the area under the curve of Ucp2 protein were generated automatically at the end of the run. The Ucp2 protein levels were quantified by a ratio of the area under the curve from each sample that was normalized by the corresponding area under the curve of the corresponding total protein.

cardiomyocytes [11] = assay: Example 3: cardiomyocyte apoptosis by tropomyosin/TUNEL co-localization; conditions: for cardiomyocytes apoptosis: ten weeks, compared to control
[12] = test system: Dox-induced cardiotoxicity mouse model; assay: Example 3: M-mode echocardiography of cardiac function
[13] = cited from earlier work
IGFBP-3 = IGFBP-3 (Homo sapiens, UniProt P17936); conditions: cited from earlier work
Sequence of IGFBP-3 (P17936 28-291, species assumed): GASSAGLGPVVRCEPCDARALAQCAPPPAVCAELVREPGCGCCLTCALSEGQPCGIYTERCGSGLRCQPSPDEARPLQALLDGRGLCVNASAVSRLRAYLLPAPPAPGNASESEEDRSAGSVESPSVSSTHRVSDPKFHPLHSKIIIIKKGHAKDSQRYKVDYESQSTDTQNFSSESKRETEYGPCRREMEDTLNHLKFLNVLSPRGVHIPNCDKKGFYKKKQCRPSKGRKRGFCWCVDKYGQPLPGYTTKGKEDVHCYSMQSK

cardiac fibrosis [14] = conditions: mouse, in vivo
cardiomyocytes [15] = conditions: mouse, in vivo
[16] = test system: Atrial Natriuretic Factor (ANF); conditions: mouse, in vivo
[17] = test system: Dox-induced cardiotoxicity mouse model; conditions: in vivo
[18] = 84 genes examined, threshold of 1.1 fold
[19] = positive up-regulation, negative down-regulation
[20] = echocardiogram days 32-38, vs non-treated and HNG treated mice

HN-C8A: HN mutant, Cys8 to Ala; MAPRGFSALLLLTSEIDLPVKRRA (SEQ ID NO: 33)
Cytoprotective Action (cells): Not effective, prevents HN self-
Characteristics: membrane receptor binding (membrane receptor): Loss of membrane receptor

HN-C8P: HN mutant, Cys8 to Pro (MAPRGFSPLLLLTSEIDLPVKRRA; UniProt Q8IVG9 1-24, looked up, variant C8P)
Characteristics: BAX binding (BAX): Loss of BAX binding
Cytoprotective Action (cells): Not effective, blocks intracellular

HN-L12A: HN mutant, Leu12 to Ala (MAPRGFSCLLLATSEIDLPVKRRA; UniProt Q8IVG9 1-24, looked up, variant L12A)
Cytoprotective Action (cells): HN antagonist, forms inactive

COc1cccc2c1C(=O)c1c(O)c3c(c(O)c1C2=O)C[C@@](O)(C(=O)CO)C[C@@H]3O[C@H]1C[C@H](N)[C@H](O)[C@H](C)O1 [DOX, Doxorubicin]
Body weight [1]: started to lose weight at about day 8 to 10; also recorded: significant loss in weight; also recorded: decreased weight
Survival (mice survived / mice in group) ([1]; DOX halted after 4th injection, up to day 38-40): 4/10
Body weight loss, DOX vs DOX+HNG ([1]; day 29, p<0.05): lost more weight than the mice treated with DOX+HNG; also recorded: losing significantly more weight
expression levels of ANF mRNA [2]: significantly increased
cardiac fibrosis (cardiac fibrosis [3]): significantly induced a cardiac fibrosis response
number of genes down-regulated as compared to control [4, 18]: 5 genes
number of genes up-regulated as compared to control [4, 18]: 78 genes
number of genes upregulated as compared to control ([4]; 84 genes examined, threshold of 2-fold): 12 genes
Bbc3 Dox-induced gene expression (Fold changes as compared to control) [4, 19]: 3.27 Fold changes
Bcl2 Dox-induced gene expression (Fold changes as compared to control) [4, 19]: 2.23 Fold changes
Cox18 Dox-induced gene expression (Fold changes as compared to control) [4, 19]: 2.01 Fold changes
NefI Dox-induced gene expression (Fold changes as compared to control) [4, 19]: 3.07 Fold changes
Sfn Dox-induced gene expression (Fold changes as compared to control) [4, 19]: 2.55 Fold changes
Slc25a17 Dox-induced gene expression (Fold changes as compared to control) [4, 19]: 2.00 Fold changes
Slc25a20 Dox-induced gene expression (Fold changes as compared to control) [4, 19]: 2.53 Fold changes
Slc25a21 Dox-induced gene expression (Fold changes as compared to control) [4, 19]: 2.35 Fold changes
Slc25a22 Dox-induced gene expression (Fold changes as compared to control) [4, 19]: 3.12 Fold changes
Slc25a23 Dox-induced gene expression (Fold changes as compared to control) [4, 19]: 5.83 Fold changes
Ucp2 Dox-induced gene expression (Fold changes as compared to control) [4, 19]: 2.03 Fold changes
Ucp3 Dox-induced gene expression (Fold changes as compared to control) [4, 19]: 2.73 Fold changes
Ucp2 and Ucp3 mRNA expression ([4]; qRT-PCR, heart): increased Ucp2 and Ucp3 mRNA expression
incidence of congestive heart failure ([5]; cumulative dose of 400 mg/m^2): 3 to 5%
incidence of congestive heart failure ([5]; cumulative dose of 550 mg/m^2): 7 to 26%
mice died before the termination of the experiment ([6]; 10 mice per group, 10 weeks): three
Heart weight ([7]; Example 1 mice at sacrifice): significantly lower than the non-treated and HNG treated mice; also recorded: smaller hearts than non-treated and HNG treated mice
ejection fraction [7, 20]: decrease in ejection fraction; also recorded: lower ejection fraction
fractional ventricular shortening [7, 20]: decrease; also recorded: lower fractional shortening
body weight (BW) at the end of 10 weeks [8]: significantly decreased body weight
Ejection fraction (EF) ([9]; adult male mice, DOX 3 mg/week IP for 8 injections, FIG. 6): highly significant decrease in EF
Ucp2 protein expression ([10]; compared to control): significantly decreased Ucp2 protein expression
cardiomyocytes apoptosis (cardiomyocytes [11]): significantly increased cardiomyocytes apoptosis
ejection fraction ([12]; 9.5 weeks after treatment): significantly decreased
fractional shortening ([12]; 9.5 weeks after treatment): significantly decreased
heart rate ([12]; 9.5 weeks after treatment): significantly decreased
left ventricle posterior wall thickening ([12]; 9.5 weeks after treatment): significantly decreased
time after Dox treatment until Dox-induced cardiac dysfunction occurred ([12]; accumulative dose of 24 mg/kg body weight in mice): ≥ 8 weeks

HN-S7A: HN mutant, Ser7 to Ala; MAPRGFACLLLLTSEIDLPVKRRA (SEQ ID NO: 35)
Cytoprotective Action (cells): Not effective, prevents HN self-
Characteristics: membrane receptor binding (membrane receptor): Loss of membrane receptor

C[C@@H](CN1CC(=O)NC(=O)C1)N1CC(=O)NC(=O)C1 [DRZ, Dexrazoxane]
Dox-increased ANF expression, effect of addition ([2]; added to Dox-treated mice): returned expression of ANF to control levels
expression levels of ANF mRNA [2]: did not significantly altered ANF transcripts
cardiac fibrosis (cardiac fibrosis [3]): no changes of fibrosis
Dox-induced cardiac fibrosis, effect of co-treatment (cardiac fibrosis [3]; in Dox-treated mice): did not reduce Dox-induced cardiac fibrosis
Dox-induced Ucp2 and Ucp3 mRNA expression, effect of co-treatment ([4]; qRT-PCR, Dox-treated mice): reversed Dox-induced Ucp2 and Ucp3 mRNA expression to control levels
Dox-induced BW loss, effect of co-treatment ([6]; in Dox-treated mice): attenuated the Dox-induced BW loss
testicular toxicity ([13]; has been shown): induce testicular toxicity
significant adverse events ([13]; patients receiving high doses of anthracyclines): decreased granulocytes and platelets
body weight (BW) at the end of 10 weeks [8]: no significant adverse effect on body weight
DOX-induced decrease in EF, effect of co-treatment ([9]; DOX treated mice, HNG 5 mg/day IP, DRZ 60 mg/week IP): ameliorated
Ucp2 protein suppressed by Dox, effect of co-treatment ([10]; Dox-treated mice): significantly normalized Ucp2 protein suppressed by Dox to control levels
Dox-induced cardiomyocytes apoptosis, effect of co-treatment (cardiomyocytes [11]; Dox-treated mice, ten weeks after treatment): no markedly protective effect
cardiomyocytes apoptosis (cardiomyocytes [11]): did not induce significant levels of cardiomyocytes apoptosis
Dox-induced cardiac dysfunction, protective effect ([12]; Dox-treated mice, summary): improved heart function impaired by Dox treatment
cardiac parameters (heart rate, LV posterior wall thickening, fractional shortening, ejection fraction) ([12]; without Dox, compared to controls across the treatment period): did not show any altered cardiac parameters

HN-F6A: HN mutant, Phe6 to Ala (MAPRGASCLLLLTSEIDLPVKRRA; UniProt Q8IVG9 1-24, looked up, variant F6A)
Cytoprotective Action (cells): Similar/more effective than HN
Characteristics: IGFBP-3 binding (IGFBP-3): Loss of IGFBP-3 binding

MAPRGFSCLLLLTGEIDLPVKRRA [HNG]
Body weight [1]: gained weight; also recorded: increased weight
cardiac fibrosis (cardiac fibrosis [14]): no changes of fibrosis
cardiomyocytes apoptosis (cardiomyocytes [15]): did not induce significant levels of cardiomyocytes apoptosis
expression levels of ANF mRNA [16]: did not significantly altered ANF transcripts
body weight (BW) at the end of 10 weeks ([6]; surviving mice, compared to control): no significant adverse effect on body weight
cardiac parameters (heart rate, LV posterior wall thickening, fractional shortening, ejection fraction) [17]: did not show any altered cardiac parameters
